Values of other authors in patent EP1269978A2, “Use of bis-resorcinyltriazine derivatives in cosmetic or dermatological preparations” (Beiersdorf AG, priority 2001, dated 2003).

Details: n-Octanol / Wasser

- log P-Wert: ~7
SMILES: CC1=C(/C=C/C(C)=C/C=C/C(C)=C/CO)C(C)(C)CCC1 [Retinol]
